The source of these data is US10407440B2, “Therapeutic agent for motor disorders” (KYOWA HAKKO KIRIN CO., LTD., priority 2009, dated 2019).

Series [1] deals with MPTP-treated common marmoset. The series can be described thus: Test Example 3: combination with L-DOPA in MPTP-treated common marmoset, motor disability score. Type of series: in vivo. The source says:
Parkinson's disease is a disease based on the progressive degeneration and loss of dopaminergic neuron in substantia nigra-striatum. In primates, a treatment with MPTP, which is a dopamine neurotoxin, causes selective degeneration and loss of dopaminergic neuron in substantia nigra-striatum and induces symptoms of akinesia, muscle rigidity and the like. The primates treated with MPTP are known as the model of Parkinson's disease [Proceedings of the National Academy of Science USA, vol. 80, p. 4546 (1983)]. In addition, common marmoset belongs to Haplorhini and is known to show the symptoms of Parkinson's disease by MPTP, like other Haplorhini [Neuroscience Letter, vol. 57, p. 37 (1985)]. […] The parkinsonian symptoms were judged using the index described in a previous report [Annales of Neurology, vol. 43, p. 507 (1998)]. All compounds were used as a suspension in 0.5% MC400, 10% aqueous sucrose solution. The subject animal was placed in an observation cage (with locomotor activity measuring apparatus) one day before the test compound administration for preconditioning to the environment. The symptoms of Parkinson's disease were continuously monitored through one-way mirror and disability score was scored each 10 min for 6 hr.
The locomotor activity was automatically measured using a computer by a measuring apparatus with a photocell.

In series [2] the target is T1, human adenosine A1 receptor (Homo sapiens, UniProt P30542).
T1 construct: host or cells: CHO cells (membranes)
T1 sequence (P30542 1-326): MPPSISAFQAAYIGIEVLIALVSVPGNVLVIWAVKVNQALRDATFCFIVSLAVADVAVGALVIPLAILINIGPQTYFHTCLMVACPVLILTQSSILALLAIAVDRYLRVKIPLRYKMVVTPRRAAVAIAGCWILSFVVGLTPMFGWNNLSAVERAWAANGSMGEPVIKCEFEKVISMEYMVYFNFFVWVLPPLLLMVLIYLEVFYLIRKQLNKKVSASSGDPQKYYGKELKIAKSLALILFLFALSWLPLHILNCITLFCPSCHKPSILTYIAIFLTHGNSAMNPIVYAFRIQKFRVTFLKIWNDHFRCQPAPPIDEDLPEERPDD
The series can be described thus: Adenosine A1 receptor binding test (3H-DPCPX binding). The conditions noted are these: read-out: Inhibitory rate for human adenosine A1 receptor binding (3H-DPCPX binding). The source says:
Specifically, for example, human A1 receptor-expressing CHO cell membranes are used, and, as the labeled compound, for example, tritium-labeled DPCPX (1,3-dipropyl-8-cyclopentylxanthine) is used. The amount of non-specific binding can be determined by measuring the ^3H-DPCPX bound radioactivity in the presence of, for example, 100 μmol/L of R(−)-PIA((−)-N^6-2-phenylisopropyl adenosine).

For series [3], the system named is MPTP-treated common marmoset that developed motor complication. In words: Test Example 4: combination with L-DOPA in MPTP-treated common marmoset that developed motor complication. The conditions noted are these: for duration (on-time) of anti-parkinsonian activities of L-DOPA / minimum disability score: gavage. Type of series: in vivo. On the procedure:
10 mg/kg of L-DOPA (containing 2.5 mg/kg of benserazide hydrochloride) was administered by gavage to common marmoset that developed chronic parkinsonian symptoms by treatment with MPTP by the method described in Test Example 3 (MPTP-treated marmoset) twice a day at about 6 hr intervals. L-DOPA was repeatedly administered for more than 3 weeks to induction of motor complication (dyskinesia symptom, wearing-off phenomenon, on-off fluctuation and the like) in MPTP-treated marmoset in addition to parkinsonian symptoms, and the marmoset was used for the test. […] The locomotor activity was automatically measured using a computer by a measuring apparatus with a photocell. […] The subject animal was placed in an observation cage (with locomotor activity measuring apparatus) one day before the test compound administration for preconditioning to the environment. The symptoms of Parkinson's disease were continuously monitored through one-way mirror and disability score was scored each 10 min for 6 hr.

Series [4] shares this test system. In words: Test Example 5: influence on dyskinesia in MPTP-treated common marmoset that developed motor complication. Format: in vivo. Particulars: L-DOPA alone 1.25, 2.5, 5.0, 7.5 and 10 mg/kg (with benserazide hydrochloride). On the procedure: 10 mg/kg of L-DOPA (containing 2.5 mg/kg of benserazide hydrochloride) was administered to common marmoset that developed chronic parkinsonian symptoms by treatment with MPTP by the method described in Test Example 3 (MPTP-treated marmoset) twice a day at about 6 hr intervals. L-DOPA was repeatedly administered for more than 3 weeks to induction of motor complication (dyskinesia symptom, wearing-off phenomenon, on-off fluctuation and the like) in MPTP-treated marmoset in addition to parkinsonian symptoms, and the marmoset was used for the test. The dyskinesia severity was rating using the rating scale described in a previous report [[…] of Neurology, vol. 43, p. 507 (1998)] as in Test Example 2. […] The subject animal was placed in an observation cage (with locomotor activity measuring apparatus) one day before the test compound administration for preconditioning to the environment. The dyskinesia symptoms were observed through one-way mirror and scored each 20 min for 6 hr. [table] The locomotor activity was automatically measured using a computer by a measuring apparatus with a photocell.

Where [5] appears, read: 1 mg/kg compound combined with L-DOPA 2.5 mg/kg.

SMILES strings stand for the structures.

Regarding `Cc1ccc(C(=O)Nc2nc(-c3ccco3)c(C(=O)C3CCOCC3)s2)cn1` [Compound (IC)], the “duration of anti-parkinsonian activity of L-DOPA” value in series [1] (1 mg/kg compound co-administered orally with L-DOPA 2.5, 5.0, 7.5 and 10.0 mg/kg) was “prolonged the anti-parkinsonian activity of L-DOPA”. In series [1] (1 mg/kg compound co-administered orally with L-DOPA 2.5, 5.0, 7.5 and 10.0 mg/kg, versus L-DOPA alone), the “maximum effects of L-DOPA (minimum motor disability score)” value is on record as “enhanced maximum effects of L-DOPA alone”. Besides, in series [1] (1 mg/kg compound plus 10 mg/kg L-DOPA orally, compared to 10 mg/kg L-DOPA alone), the “action expression time (on-time)” value is given as “increased”. The inhibition at 0.1 µM in series [2] amounted to 29%. In series [3] (setting [5]), the “duration (on-time) of anti-parkinsonian activities of L-DOPA” value is recorded as “about 150 min” and the minimum disability score came to 3.83±0.17.
Consider `N[C@@H](Cc1ccc(O)c(O)c1)C(=O)O` [L-DOPA], for which, in series [1] (L-DOPA alone 2.5, 5.0, 7.5 and 10.0 mg/kg (with 1/4 amount benserazide hydrochloride)), the parkinsonian symptoms result is on record as “decreased within increasement of the dosage”. The dyskinesia entry in series [4] is “dyskinesia was induced”. For the same compound, in series [3] (L-DOPA 2.5 mg/kg alone), the “duration (on-time) of anti-parkinsonian activities of L-DOPA” value is on record as “about 50 min” and the minimum disability score worked out at 5.33±0.80. In addition, in series [3] (L-DOPA alone 2.5 mg/kg or 10 mg/kg (with benserazide hydrochloride)), the parkinsonian symptoms result was “decreased with the increasement of dosage”.
